The values that follow come from US5605895A, “Cephalosporin antibiotics and processes for preparation thereof” (Lucky, Ltd., priority 1993, dated 1997).

Series [1] is described as follows: Pharmacokinetic properties in SD rats. The series is classed as in vivo. Conditions: rat; SD rats (male), intravenous, 20 mg/kg; blood, biological assay (agar well method). On the procedure: The pharmacokinetic properties of the compound of the present invention were determined using SD rats (.male.) weighing 220 to 340 g. Specifically, the test samples were administered in intravenous route in an amount of 20 mg/kg to 2 to 5 test animals. Blood was taken from femoral vein every hours after the administration and then subjected to a biological assay using agar well method to measure the blood concentration. The results of pharmacokinetic properties calculated from the above blood concentration are described in the following Table 3.

The subject of a further series is S. typhimurium 14028A. The series is described as follows: Minimum inhibitory concentration, agar dilution. Type of series: cell-based. Conditions: Salmonella enterica, read-out: Minimum Inhibitory Concentration. The protocol: (§1) The minimum inhibitory concentration was determined by diluting the test compounds according to 2-fold dilution, suspending them in M uller-Hinton agar medium, inoculating the test strains having 10^7 CFU per 1 ml into the medium and then culturing the medium at 37° C. for 20 hours.

In a further series the test system is S. aureus giorigio. Briefly: Minimum inhibitory concentration, agar dilution. Type of series: cell-based. Conditions: Staphylococcus aureus, Muller-Hinton agar, 10^7 CFU per ml, 37° C., 20 hours. The protocol:
as §1
In general terms: Agar dilution tests growth on a series of plates holding different concentrations.

The next series deals with K. aerogenes 1976E. The series is described as follows: Minimum inhibitory concentration, agar dilution. The series is classed as cell-based. Conditions: Klebsiella aerogenes, Muller-Hinton agar, 10^7 CFU per ml, 37° C., 20 hours. The protocol: as §1
The subject of the next series is E. coli TEM5 3739E. The series is described as follows: Minimum inhibitory concentration, agar dilution. Type of series: cell-based. Conditions: Escherichia coli, TEM53739E, 20 h, read-out: Minimum Inhibitory Concentration. The protocol: as §1
The next series deals with P. aeruginosa 1912E. Briefly: Minimum inhibitory concentration, agar dilution. Type of series: cell-based. Conditions: Pseudomonas aeruginosa, 20 h, read-out: Minimum Inhibitory Concentration. The protocol: as §1
The next series concerns E. coli 3190Y. Briefly: Minimum inhibitory concentration, agar dilution. Conditions: Escherichia coli, 3190Y, 20 h, read-out: Minimum Inhibitory Concentration. The series is classed as cell-based. The protocol:
as §1

In the next series the test system is E. coli TEM1 1193E. Briefly: Minimum inhibitory concentration, agar dilution. Conditions: Escherichia coli, TEM11193E, 20 h, read-out: Minimum Inhibitory Concentration. Type of series: cell-based. The protocol: as §1
Another series concerns E. coli 10536. The series is described as follows: Minimum inhibitory concentration, agar dilution. Type of series: cell-based. Conditions: Escherichia coli; E. coli 10536; Muller-Hinton agar, 10^7 CFU per ml, 37° C., 20 hours; read-out: Minimum Inhibitory Concentration. On the procedure:
as §1

For a further series, the system named is S. faecalis 29212A. Briefly: Minimum inhibitory concentration, agar dilution. The series is classed as cell-based. Conditions: Enterococcus faecalis, read-out: Minimum Inhibitory Concentration. The protocol:
as §1

The next series concerns P. aeruginosa 6065Y. Briefly: Minimum inhibitory concentration, agar dilution. Type of series: cell-based. Conditions: Pseudomonas aeruginosa, 20 h, read-out: Minimum Inhibitory Concentration. On the procedure:
as §1

The subject of the next series is P. aeruginosa 10145. Briefly: Minimum inhibitory concentration, agar dilution. The series is classed as cell-based. Conditions: Pseudomonas aeruginosa, Muller-Hinton agar, 10^7 CFU per ml, 37° C., 20 hours. The protocol: as §1
In the next series the test system is S. marcescens 1826E. Briefly: Minimum inhibitory concentration, agar dilution. Type of series: cell-based. Conditions: Serratia marcescens, Muller-Hinton agar, 10^7 CFU per ml, 37° C., 20 hours. The protocol:
as §1

Another series has as its system E. cloacae 1194E. Briefly: Minimum inhibitory concentration, agar dilution. The series is classed as cell-based. Conditions: Enterobacter cloacae, read-out: Minimum Inhibitory Concentration. The protocol:
as §1

The subject of another series is S. aureus 6538pA. The series is described as follows: Minimum inhibitory concentration, agar dilution. The series is classed as cell-based. Conditions: Staphylococcus aureus, Muller-Hinton agar, 10^7 CFU per ml, 37° C., 20 hours. On the procedure:
as §1

Another series concerns A. calcoaceticus 15473A. Briefly: Minimum inhibitory concentration, agar dilution. The series is classed as cell-based. Conditions: Acinetobacter calcoaceticus, Muller-Hinton agar, 10^7 CFU per ml, 37° C., 20 hours. On the procedure: as §1
The next series concerns E. coli TEM9 2639E. Briefly: Minimum inhibitory concentration, agar dilution. The series is classed as cell-based. Conditions: Escherichia coli, TEM92639E, 20 h, read-out: Minimum Inhibitory Concentration. On the procedure:
as §1

Setting [2] is: S. typhimurium 14028A, Muller-Hinton agar, 10^7 CFU per ml, 37° C., 20 hours.
Where [3] appears, read: S. faecalis 29212A, Muller-Hinton agar, 10^7 CFU per ml, 37° C., 20 hours.

Converted amounts (≈) assume the structure as drawn. Like-named read-outs stand apart in the source and are kept apart here.

The term AUC denotes concentration integrated over time. The low end stands for low exposure, the high end for high exposure. In general, half-life refers to the time in which the quantity being followed falls by half. Lower therefore signals rapid decline. On to `Nc1cc[n+](N)c(SCC2=C(C(=O)[O-])N3C(=O)C(NC(=O)C(=NOC(C(=O)O)c4ccc(O)c(O)c4)c4csc(N)n4)C3SC2)n1` (stereo not drawn) [I-4(a), 7-[(Z)-2-(2-aminothiazol-4-yl)-2-(α-carboxy-3,4-dihydroxybenzyloxyimino)acetamide]-3-(1,4-diaminopyrimidinium-2-yl)thiomethyl-3-cephem-4-carboxylate], for which the exposure (AUC) in [1] is 52900 ng·h/mL. The compound also showed a half-life in series [1] of 50 min. For the same compound, the MIC in the series on S. typhimurium 14028A (setting [2]) came to 0.031 µg/mL (≈ 0.0449 µM); against S. aureus giorigio, 0.5 µg/mL (≈ 0.725 µM); in the series on K. aerogenes 1976E, 0.13 µg/mL (≈ 0.188 µM); in the series with E. coli TEM5 3739E, 0.5 µg/mL (≈ 0.725 µM); in the series on P. aeruginosa 1912E it was 0.25 µg/mL (≈ 0.362 µM); in the series on E. coli 3190Y, 0.063 µg/mL (≈ 0.0913 µM). The MIC in the series on E. coli TEM1 1193E turned out to be 0.063 µg/mL (≈ 0.0913 µM); in the series with E. coli 10536, 0.016 µg/mL (≈ 0.0232 µM); in the series on S. faecalis 29212A (setting [3]), 64 µg/mL (≈ 92.8 µM); in the series on P. aeruginosa 6065Y, 0.5 µg/mL (≈ 0.725 µM); in the series on P. aeruginosa 10145, 0.25 µg/mL (≈ 0.362 µM); in the series on S. marcescens 1826E it was 0.25 µg/mL (≈ 0.362 µM). Also, the MIC with E. cloacae 1194E (1194E, 20 h) was 1 µg/mL (≈ 1.45 µM); in the series with S. aureus 6538pA, 1 µg/mL (≈ 1.45 µM); with A. calcoaceticus 15473A, 0.25 µg/mL (≈ 0.362 µM); in the series on E. coli TEM9 2639E, 1 µg/mL (≈ 1.45 µM).
Consider `C[n+]1ccc(N)nc1SCC1=C(C(=O)[O-])N2C(=O)C(NC(=O)/C(=N\OC(C(=O)O)c3ccc(O)c(O)c3)c3csc(N)n3)[C@H]2SC1` (stereo partly drawn) [I-5(a), 7-[(Z)-2-(2-aminothiazol-4-yl)-2-(α-carboxy-3,4-dihydroxybenzyloxyimino)acetamido]-3-(4-amino-1-methylpyrimidinium-2-yl)thiomethyl-3-cephem-4-carboxylate], for which the AUC in [1] was 43600 ng·h/mL. In addition, in series [1], the half-life was 39 min. Also, the MIC worked out at 0.031 µg/mL (≈ 0.045 µM) with S. typhimurium 14028A (setting [2]); 0.25 µg/mL (≈ 0.363 µM) with S. aureus giorigio; 0.25 µg/mL (≈ 0.363 µM) against K. aerogenes 1976E; 0.5 µg/mL (≈ 0.726 µM) in the series on E. coli TEM5 3739E; 0.5 µg/mL (≈ 0.726 µM) in the series on P. aeruginosa 1912E; 0.063 µg/mL (≈ 0.0915 µM) in the series with E. coli 3190Y. Further, the MIC in the series on E. coli TEM1 1193E was found to be 0.063 µg/mL (≈ 0.0915 µM); with E. coli 10536, 0.031 µg/mL (≈ 0.045 µM); in the series with S. faecalis 29212A (setting [3]), 64 µg/mL (≈ 92.9 µM); in the series on P. aeruginosa 6065Y it was 1 µg/mL (≈ 1.45 µM); against P. aeruginosa 10145 it was 0.5 µg/mL (≈ 0.726 µM); against S. marcescens 1826E it was 0.5 µg/mL (≈ 0.726 µM). The MIC in the series on E. cloacae 1194E (1194E, 20 h) is 4 µg/mL (≈ 5.81 µM); against S. aureus 6538pA, 0.5 µg/mL (≈ 0.726 µM); in the series with A. calcoaceticus 15473A, 0.5 µg/mL (≈ 0.726 µM); in the series with E. coli TEM9 2639E, 2 µg/mL (≈ 2.9 µM).
For the compound `C[n+]1cc(C(=O)O)c(N)nc1SCC1=C(C(=O)[O-])N2C(=O)C(NC(=O)/C(=N\OC(C(=O)O)c3ccc(O)c(O)c3)c3csc(N)n3)[C@H]2SC1` (stereo partly drawn) [I-6(a), 7-[(Z)-2-(2-aminothiazol-4-yl)-2-(α-carboxy-3,4-dihydroxybenzyloxyimino)acetamido]-3-(4-amino-1-methyl-5-carboxypyrimidinium-2-yl)thiomethyl-3-cephem-4-carboxylate], the area under the curve (AUC) in series [1] is 37800 ng·h/mL. The compound also showed a half-life in [1] of 32 min. Further, the MIC in the series on S. typhimurium 14028A (setting [2]) came out at 0.031 µg/mL (≈ 0.0423 µM); against S. aureus giorigio it was 2 µg/mL (≈ 2.73 µM); in the series with K. aerogenes 1976E, 0.25 µg/mL (≈ 0.341 µM); in the series with E. coli TEM5 3739E, 0.25 µg/mL (≈ 0.341 µM); with P. aeruginosa 1912E, 0.25 µg/mL (≈ 0.341 µM); with E. coli 3190Y, 0.13 µg/mL (≈ 0.177 µM). For the same compound, the MIC was 0.063 µg/mL (≈ 0.086 µM) with E. coli TEM1 1193E; 0.031 µg/mL (≈ 0.0423 µM) with E. coli 10536; 32 µg/mL (≈ 43.7 µM) with S. faecalis 29212A (29212A, 20 h); 0.5 µg/mL (≈ 0.682 µM) in the series on P. aeruginosa 6065Y; 0.25 µg/mL (≈ 0.341 µM) in the series on P. aeruginosa 10145; 1 µg/mL (≈ 1.36 µM) against S. marcescens 1826E. Moreover, the MIC in the series with E. cloacae 1194E (1194E, 20 h) is 4 µg/mL (≈ 5.46 µM); against S. aureus 6538pA it was 2 µg/mL (≈ 2.73 µM); with A. calcoaceticus 15473A it was 0.5 µg/mL (≈ 0.682 µM); in the series on E. coli TEM9 2639E, 4 µg/mL (≈ 5.46 µM).
`C[n+]1cc(CS(=O)(=O)O)c(N)nc1SCC1=C(C(=O)[O-])N2C(=O)C(NC(=O)/C(=N\OC(C(=O)O)c3ccc(O)c(O)c3)c3csc(N)n3)[C@H]2SC1` (stereo partly drawn) [I-7(a), 7-[(Z)-2-(2-aminothiazol-4-yl)-2-(α-carboxy-3,4-dihydroxybenzyloxyimino)acetamido]-3-(1-methyl-4-amino-5-sulfomethylpyrimidinium-2-yl)thiomethyl-3-cephem-4-carboxylate] gave an area under the curve (AUC) in [1] of 53100 ng·h/mL. This compound also came in with a half-life in series [1] of 48 min. The MIC in the series with S. typhimurium 14028A (TYPHIMURIUM, 20 h) was 0.5 µg/mL (≈ 0.639 µM); against S. aureus giorigio, 2 µg/mL (≈ 2.55 µM); against K. aerogenes 1976E, 0.5 µg/mL (≈ 0.639 µM); with E. coli TEM5 3739E it was 0.5 µg/mL (≈ 0.639 µM); in the series with E. coli 3190Y it was 0.063 µg/mL (≈ 0.0805 µM); in the series on E. coli TEM1 1193E, 0.13 µg/mL (≈ 0.166 µM). For the same compound, the MIC in the series with E. coli 10536 is 0.031 µg/mL (≈ 0.0396 µM); with S. faecalis 29212A (29212A, 20 h), 32 µg/mL (≈ 40.9 µM); against P. aeruginosa 10145 it was 0.25 µg/mL (≈ 0.319 µM); in the series on S. marcescens 1826E, 1 µg/mL (≈ 1.28 µM); in the series on E. cloacae 1194E (E. cloacae 1194E, Muller-Hinton agar, 10^7 CFU per ml, 37° C., 20 hours) it was 8 µg/mL (≈ 10.2 µM); in the series with S. aureus 6538pA, 2 µg/mL (≈ 2.55 µM). Besides, the MIC in the series with A. calcoaceticus 15473A was 0.5 µg/mL (≈ 0.639 µM); in the series on E. coli TEM9 2639E it was 4 µg/mL (≈ 5.11 µM).
